From article PMC10976746 (Molecular Medicine, 2024) come the findings set out here.

For test [1], the target named is T1, Macrophage migration inhibitory factor (MIF) (Homo sapiens, UniProt P14174).
T1 sequence (P14174 2-115): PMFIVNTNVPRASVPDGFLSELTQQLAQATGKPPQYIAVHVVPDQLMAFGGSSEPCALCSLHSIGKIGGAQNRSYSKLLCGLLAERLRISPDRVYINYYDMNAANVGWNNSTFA

Test [2] has as its target murine MIF (Mus musculus, UniProt P34884). As to the kind of experiment: dopachrome tautomerase inhibition assay, recombinant mouse MIF. The test is classed as biochemical.

For `O=C(O)C(=O)Cc1ccc(O)cc1` [4-HPP, 4-hydroxyphenylpyruvate], the “keto-enol tautomerase kinetics (Michaelis-Menten), enol-HPP/borate at 306 nm” value in test [1] was “(B) the substrate 4-HPP for MIF-induced keto-enol tautomerization”.
The term IC50 denotes the concentration that inhibits the measured activity by half. For `CS(=O)(=O)Nc1cc2occ(NC=O)c(=O)c2cc1Oc1ccccc1` [T-614, iguratimod], the concentration for half-maximal inhibition (IC50) in test [2] was determined as 5.2 µM.
